Data on 14 compounds can be found in US8415309B2, “Bicyclic nucleosides and nucleotides as therapeutic agents” (priority 2009, dated 2013).

Series [1] concerns HCV RNA replication (HCV subgenomic replicon in MP-1 cells). The series is described as follows: Cell-Based HCV RNA Replication Luciferase Reporter Assay. The settings on record: Hepatitis C virus; for inhibition at 50 µM: read-out: Inhibition at 50 μM (%); for EC50: 72 h. In general terms: Reporter assays use an easily measured gene product as a stand-in for the process of interest.

Series [2] is described as follows: Cytotoxicity (CellTiter-Blue / MTT) run with the replicon assay. It counts as cell-based. The note with it: human, MP-1 cells. As to the method: The assay outline includes the following steps on Day 1: (1) Plate cells at a density of 10,000 cells/well of a 96 well plate and incubate 37° C.; (2) Make compound dilutions; (3) Add compound dilutions to cells; (4) Incubate for 72 h. The assay includes the following steps on Day 4: (1) Perform Cell titer blue assay for cytotoxicity (the assay is based on the reduction of resazurin (cell titer blue) into a fluorescent product, resorufin, in metabolically active cells, and the assay can be duplexed with the assay used for HCV replicon luciferase reporter assay); (2) Perform luciferase assay with the Bright-Glo luciferase substrate (Promega) and read luminescence; (3) Process results.
Under the Alamar blue assay protocol, the assay plates are removed from a 37° C. incubator, and 20 μl of CellTiter-Blue™ Reagent is added. The cells are incubated in the 37° C. incubator for 3 h. The assay plates are shaken for 10 sec and fluorescence at 560Ex/590Em nm is recorded. The results are expressed relative to the 100% untreated control using the following equation: […]=100−[(RFUcompound−RFUblank/RFUuntreated−RFUblank)×100]. Alternatively, under the MTT protocol the extent of cytotoxicity is determined via metabolism of the vital dye 3-(4,5-dimethylthiaxol-2-yl)-2,5-diphenyltetrazolium bromide (MTT). MTT (1 mg/ml) was added to each well and plates incubated for 3 hours incubation at 37° C. Wells were aspirated, iso-propanol […] was added and absorbance values read at 540/690 nm. Compound concentrations that developed 50% cytotoxicity (CC50) were calculated using non-linear regression analysis.
For orientation: The colour change of resazurin is a common sign of viable cells or microbes.

A further series in a line: Pharmacokinetics in dogs. It counts as in vivo, beagle dogs. The settings on record: Dog. As for the experimental part: (§1) The pharmacokinetic properties of Compound 9 were determined in male Sprague-Dawley rats, beagle dogs and cynomolgus monkeys (n=3 in each species) with an oral dose of 5 mg/kg and iv dose of 2 mg/kg. PK parameters were analyzed using the WinNonlin noncompartmental model.

The next series is described as follows: Pharmacokinetics in rats. The settings on record: Rat. It counts as in vivo, male Sprague-Dawley rats. As for the experimental part: as §1
The next series can be described thus: Cross-species PK summary. The format is in vivo, rats, monkeys and dogs. The note with it: Sprague-Dawley (rat), beagle (dog), cynomolgus (monkey), plasma. As to the method: as §1
Series [3] is described as follows: Pharmacokinetics in monkeys. The format is in vivo, cynomolgus monkeys. As to the method: as §1
Setting [4] is: MP-1 cells, luciferase readout, read-out: EC50.
The mark [5] stands for this setting: oral 5 mg/kgBW, read-out: Cmax (maximum concentration observed following the oral dose).

Like-named read-outs stand apart in the source and are kept apart here.

Broadly, the inhibition is the share of the control response that was lost under treatment. Take `C[C@@]1(O)[C@H](O)[C@@H](CO)O[C@H]1c1cc(-c2ncc[nH]2)c2c(N)ncnn12` [Compound 38, 4-amino-5-imidazole-7-(2-C-methyl-β-D-ribofuranosyl)-pyrrolo[2,1-f][1,2,4]triazine]: the inhibition at 50 µM in series [1] (50 μM compound) turned out to be 99%.

For the compound `C[C@@]1(O)[C@H](O)[C@@H](CO)O[C@H]1c1cc(I)c2c(N)ncnn12` [Compound 13, 4-amino-5-iodo-(2-C-methyl-β-D-ribofuranosyl)-pyrrolo[2,1-f][1,2,4]triazine], in series [1] (50 μM compound), the inhibition at 50 µM amounted to 97%.

Turning to `C[C@@]1(O)[C@H](O)[C@@H](CO)O[C@H]1c1cc(C2=NCCN2)c2c(N)ncnn12` [Compound 35, 4-amino-5-imidazoline-7-(2-C-methyl-β-D-ribofuranosyl)-pyrrolo[2,1-f][1,2,4]triazine], in series [1] (50 μM compound), the inhibition at 50 µM stood at 99%.

Consider `C[C@@]1(O)[C@H](O)[C@@H](CO)O[C@H]1c1c(F)cc2c(N)ncnn12` [Compound 32, 4-Amino-6-fluoro-7-(2-C-methyl-β-D-ribofuranosyl)-pyrrolo[2,1-f][1,2,4]triazin-7-yl], for which the inhibition at 50 µM in series [1] (50 μM compound) stood at 23%.

One may read the EC50 as the concentration needed to bring the measured effect to its halfway point. As usually defined, the CC50 is the concentration that lowers cell viability or growth by half. Higher therefore signals better tolerance by the cells. On to `C[C@@]1(O)[C@H](O)[C@@H](CO)O[C@H]1c1cc(C(N)=O)c2c(N)ncnn12` [Compound 15, 4-amino-7-(2-C-methyl-β-D-ribofuranosyl)-pyrrolo[2,1-f][1,2,4]triazine-5-carboxylic acid amide], for which, in series [1] (50 μM compound), the inhibition at 50 µM worked out at 100%. The EC50 in series [1] (setting [4]) is 6.2 nM. Also, the CC50 at 72 h in series [2] is 0.37 µM.

Take `C#Cc1cc([C@@H]2O[C@H](CO)[C@@H](O)[C@@]2(C)O)n2ncnc(N)c12` [Compound 17, 4-Amino-5-ethynyl-7-(2-C-methyl-β-D-ribofuranosyl)-pyrrolo[2,1-f][1,2,4]triazine]: the inhibition at 50 µM in series [1] (50 μM compound) turned out to be 98%.

On to `C[C@@]1(O)[C@H](O)[C@@H](CO)O[C@H]1c1ccc2c(N)nc(N)nn12` [Compound 20, 2,4-diamino-7-(2-C-methyl-β-D-ribofuranosyl)-pyrrolo[2,1-f][1,2,4]triazine], for which the inhibition at 50 µM in series [1] (50 μM compound) amounted to 19%.

Take `CC(C)(C)C(=O)OCOP(=O)(OCOC(=O)C(C)(C)C)OC[C@H]1O[C@@H](c2ccc3c(N)ncnn23)[C@](C)(O)[C@@H]1O` [Compound 34, Bis-POM (pivaloyloxymethyl) prodrug of 4-amino-7-(2-C-methyl-β-D-ribofuranosyl)-pyrrolo[2,1-f][1,2,4]triazine]: in series [1], the midpoint of the response, the EC50, lay at 3800 nM and the inhibition at 50 µM was found to be 100%. Moreover, the CC50 at 72 h in series [2] was 45 µM.

On to `C[C@@]1(O)[C@H](O)[C@@H](CO)O[C@H]1c1cc(F)c2c(N)ncnn12` [Compound 11, 4-amino-5-fluoro-7-(2-C-methyl-β-D-ribofuranosyl)-pyrrolo[2,1-f][1,2,4]triazine], for which the inhibition at 50 µM in series [1] (50 μM compound) is 97%. In addition, the EC50 in series [1] (setting [4]) was 3100 nM. This compound returned a CC50 at 72 h in series [2] above 100 µM.

Regarding `C[C@@]1(O)[C@H](O)[C@@H](CO)O[C@H]1c1cc(-c2ncco2)c2c(N)ncnn12` [Compound 22, 4-amino-5-oxazol-2-yl-7-(2-C-methyl-β-D-ribofuranosyl)-pyrrolo[2,1-f][1,2,4]triazine], the inhibition at 50 µM in series [1] (50 μM compound) came to 95%.

Turning to `C[C@@]1(O)[C@H](O)[C@@H](CO)O[C@H]1c1cc(Cl)c2c(N)ncnn12` [Compound 12, 4-amino-5-chloro-7-(2-C-methyl-β-D-ribofuranosyl)-pyrrolo[2,1-f][1,2,4]triazine], in series [1] (50 μM compound), the inhibition at 50 µM was 99%. The EC50 in series [1] (setting [4]) was found to be 220 nM. In addition, the CC50 at 72 h in series [2] was 6.5 µM.

For `C[C@@]1(O)[C@H](O)[C@@H](CO)O[C@H]1c1cc(C#N)c2c(N)ncnn12` [Compound 14, 4-amino-7-(2-C-methyl-β-D-ribofuranosyl)-pyrrolo[2,1-f][1,2,4]triazine-5-carbonitrile], the inhibition at 50 µM in series [1] (50 μM compound) was found to be 100%. Moreover, the 50% effective concentration (EC50) in series [1] (setting [4]) stood at 1400 nM. The compound also came in with a CC50 at 72 h in series [2] of 18.8 µM.

For the compound `C[C@@]1(O)[C@H](O)[C@@H](CO)O[C@H]1c1cc(C#C[Si](C)(C)C)c2c(N)ncnn12` [Compound 16, 4-amino-5-trimethylsilanylethynyl-7-(2-C-methyl-β-D-ribofuranosyl)-pyrrolo[2,1-f][1,2,4]triazine], in series [1] (50 μM compound), the inhibition at 50 µM was determined as 99%.

As usually defined, the bioavailability is the share of a dose that reaches the circulation, judged against a reference dose that is usually intravenous. What is called AUC is concentration integrated over time. As to `C[C@@]1(O)[C@H](O)[C@@H](CO)O[C@H]1c1ccc2c(N)ncnn12` [Compound 9, 4-amino-7-(2-C-methyl-β-D-ribofuranosyl)-pyrrolo[2,1-f][1,2,4]triazine], in series [1] (50 μM compound), the inhibition at 50 µM stood at 99%. Besides, the EC50 in series [1] (setting [4]) was 1300 nM. The same compound had a half-maximal cytotoxic concentration (CC50) at 72 h in series [2] of 365 µM. Moreover, the Cmax amounted to 8.36 µM in “Pharmacokinetics in dogs” (setting [5]); 2380 nM in “Pharmacokinetics in rats” (setting [5]); 820 nM in series [3] (cynomolgus monkey, plasma, 5 mg/kg, oral 5 mg/kgBW, read-out: Cmax (maximum concentration observed following the oral dose)). The “CL (total clearance)” value is 11.4 mL/min/kgBW in “Pharmacokinetics in dogs” (single iv 2 mg/kgBW); 18.8 mL/min/kgBW in the series “Pharmacokinetics in rats” (single iv 2 mg/kgBW); 20.5 mL/min/kgBW in series [3] (Monkey, single iv 2 mg/kgBW). The “Vss (steady state volume distribution)” value in “Pharmacokinetics in dogs” (single iv 2 mg/kgBW) is reported as 5.22 L/kgBW; in the series “Pharmacokinetics in rats” (single iv 2 mg/kgBW), 4.19 L/kgBW; in series [3] (Monkey, single iv 2 mg/kgBW), 2.43 L/kgBW. Further, the bioavailability was 96% in the series “Pharmacokinetics in dogs” (beagle, plasma, 5 mg/kg, oral 5 mg/kgBW vs iv 2 mg/kgBW, read-out: F % (oral bioavailability)); 83% in “Pharmacokinetics in rats” (male, Sprague-Dawley, plasma, 5 mg/kg, oral 5 mg/kgBW vs iv 2 mg/kgBW, read-out: F % (oral bioavailability)); 33 to 96% in “Cross-species PK summary” (po, 5 mg/kg, range over rat, monkey, dog, read-out: oral bioavailability across species); 33% in series [3] (cynomolgus monkey, plasma, 5 mg/kg, oral 5 mg/kgBW vs iv 2 mg/kgBW, read-out: F % (oral bioavailability)). Further, the AUC is 24.9 µM·h in “Pharmacokinetics in dogs” (beagle, plasma, 5 mg/kg, single iv (2 mg/kgBW) or oral dose (5 mg/kgBW), read-out: AUC (area under the curve of plasma exposure)); 13 µM·h in the series “Pharmacokinetics in rats” (male, Sprague-Dawley, plasma, 5 mg/kg, single iv (2 mg/kgBW) or oral dose (5 mg/kgBW), read-out: AUC (area under the curve of plasma exposure)); 5 µM·h in series [3] (cynomolgus monkey, plasma, 5 mg/kg, single iv (2 mg/kgBW) or oral dose (5 mg/kgBW), read-out: AUC (area under the curve of plasma exposure)). In addition, the half-life is 456 min in the series “Pharmacokinetics in dogs” (beagle, plasma, single iv (2 mg/kgBW) or oral dose (5 mg/kgBW), read-out: t1/2 (terminal elimination half-life) (converted)); 240 min in the series “Pharmacokinetics in rats” (male, Sprague-Dawley, plasma, single iv (2 mg/kgBW) or oral dose (5 mg/kgBW), read-out: t1/2 (terminal elimination half-life) (converted)); 240 to 456 min in “Cross-species PK summary” (range over preclinical animal species (rat, monkey, dog), read-out: plasma / elimination half-life across species); 258 min in series [3] (cynomolgus monkey, plasma, single iv (2 mg/kgBW) or oral dose (5 mg/kgBW), read-out: t1/2 (terminal elimination half-life) (converted)).
